The subject of one assay is HeLa. Put plainly: Cytotoxicity against human HeLa cells. Format: functional, cell-based.
For the next assay, the system named is HepG2. Kind of assay: Cytotoxicity against human HepG2 cells. Format: functional, cell-based.
The next assay deals with BGC-823. Put plainly: Cytotoxicity against human BGC823 cells. Format: cell-based.

As usually defined, the IC50 is the point on the concentration scale where inhibition reaches its midpoint. High values mean a need for much substance, low ones inhibition by little substance. As to `CC(=O)O[C@H]1CC[C@@]2(C)[C@H](CC[C@@H]3[C@@H]2CC[C@]2(C)[C@@H](c4ccc(=O)oc4)CC[C@]32O)C1`, the IC50 in the assay on HeLa came to 1140 nM; with HepG2, 740 nM; in the assay on BGC-823 it was 700 nM.
For the compound `CC(=O)O[C@H]1CC[C@@]2(C)[C@H](CC[C@@H]3[C@@H]2CC[C@]2(C)[C@@H](c4ccc(=O)oc4)[C@@H](OC(C)=O)[C@@H](O)[C@]32O)C1`, the IC50 in the assay on HeLa is 450 nM; in the assay with HepG2 it was 3100 nM; in the assay with BGC-823, 3370 nM.
The matching figures for `CC(=O)O[C@H]1CC[C@@]2(C)[C@H](CC[C@@H]3[C@@H]2CC[C@]2(C)[C@@H](c4ccc(=O)oc4)[C@@H](OC(C)=O)[C@H]4O[C@]342)C1`: 1090 nM, 6440 nM and 4110 nM.
As for `CC(=O)O[C@H]1CC[C@@]2(C)[C@H](CC[C@@H]3[C@@H]2CC[C@]2(C)[C@@H](c4ccc(=O)oc4)C[C@H]4O[C@]342)C1`, the IC50 with HeLa was above 50000 nM; in the assay with HepG2 it was above 50000 nM; with BGC-823 it was 19800 nM.
As for `C[C@]12CC[C@H](O)C[C@H]1CC[C@@H]1[C@@H]2CC[C@]2(C)[C@@H](c3ccc(=O)oc3)CC[C@]12O` [BUFALIN], the IC50 in the assay on HeLa is 730 nM; with HepG2 it was 640 nM; with BGC-823 it was 990 nM.
For `C[C@]12CC[C@H](O)C[C@H]1CC[C@@H]1[C@@H]2CC[C@]2(C)[C@@H](c3ccc(=O)oc3)C[C@H]3O[C@]132` [BUFOGENIN], the results for the IC50 in the assay with HeLa, in the assay on HepG2 and with BGC-823 were above 50000 nM, above 50000 nM and 7890 nM, respectively.
`CC(=O)O[C@H]1[C@H]2O[C@]23[C@@H]2CC[C@@H]4C[C@@H](O)CC[C@]4(C)[C@H]2CC[C@]3(C)[C@H]1c1ccc(=O)oc1` [CINOBUFAGIN]: the IC50 in the assay with HeLa is 760 nM; in the assay on HepG2 it was 5200 nM; with BGC-823, 8500 nM.
The like results for `CC(=O)O[C@H]1C(=O)[C@@]2(C)[C@H]([C@H](OC(=O)c3ccccc3)[C@]3(O)C[C@H](OC(=O)[C@H](O)[C@@H](NC(=O)c4ccccc4)c4ccccc4)C(C)=C1C3(C)C)[C@]1(OC(C)=O)CO[C@@H]1C[C@@H]2O` [PACLITAXEL] were, in that order, 20 nM, 820 nM and 1150 nM.
